Entries after “also recorded” stand apart in the source; their conditions may differ.
Tested on: H5N1 A\Hanoi\30408\2005
Set-up: species or system BALB/c mice
Settings: mouse, in vivo

KWCEC (Short peptide sequence not known to occur in nature) [5mer4]
clinical signs of disease: no clinical signs of disease
survival: 90%
survival (protected from death): 50%
weight loss: minimal weight loss; also recorded: no statistically significant weight loss

Reference: patent publication US9211325B2, “Peptide adjuvants” (priority 2008, dated 2015)
